System: HCC1937
Test: normalised response (% of control), CellTox Green; higher = less cell death (100 = DMSO, 0 = benzethonium chloride kill control)
Details: incubation time: 72 h
Outline: (§1)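 Breast cancer cell lines were exposed for 72 h in 384-well plates to compound at 5 concentrations, 10-fold apart, covering a 10,000-fold range fixed for each compound. Plates were read for CellTox Green fluorescence and CellTiter-Glo luminescence and normalised to 0.1 % DMSO (100) and a positive kill control (0). Each value is the normalised signal at one concentration of the series.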

Point of comparison: C#Cc1cccc(Nc2ncnc3cc(OCCOC)c(OCCOC)cc23)c1 [Erlotinib] (100 nM), normalised response 107%. Against it:
- CCC(C)(C)C(=O)O[C@H]1C[C@@H](C)C=C2C=C[C@H](C)[C@H](CC[C@@H]3C[C@@H](O)CC(=O)O3)[C@H]21 [Simvastatin] (100 nM) — lower, 68.8%
- Cn1c(CCCC(=O)O)nc2cc(N(CCCl)CCCl)ccc21 [Bendamustine] (100 nM) — lower, 88.6%
- O=C(CCCCCCC(=O)Nc1ccc([C@H]2O[C@@H](CSc3nc(-c4ccccc4)c(-c4ccccc4)o3)C[C@@H](c3ccc(CO)cc3)O2)cc1)NO [Tubacin] (100 nM) — lower, 83.3%
- CCC1(c2ccc(N)cc2)CCC(=O)NC1=O (stereo not drawn) [Aminoglutethimide] (100 nM) — lower, 102%

System: DU-4475
Test: as above
Details: incubation time: 72 h
Outline: as §1

Point of comparison: CCC1(c2ccc(N)cc2)CCC(=O)NC1=O (stereo not drawn) [Aminoglutethimide] (100 nM), normalised response 98.3%. Against it:
- Cc1ccc(-n2nc(C(C)(C)C)cc2NC(=O)Nc2ccc(OCCN3CCOCC3)c3ccccc23)cc1 [Doramapimod] (100 nM) — lower, 97.7%
- C[C@]12CC[C@@H]3c4ccc(O)cc4C[C@@H](CCCCCCCCC[S+]([O-])CCCC(F)(F)C(F)(F)F)[C@H]3[C@@H]1CC[C@@H]2O (stereo partly drawn) [Fulvestrant] (10 nM) — higher, 103%
- N[C@@H](CSC(c1ccccc1)(c1ccccc1)c1ccccc1)C(=O)O [S-trityl-L-cysteine] (400 nM) — lower, 97.9%
- CCC(C)(C)C(=O)O[C@H]1C[C@@H](C)C=C2C=C[C@H](C)[C@H](CC[C@@H]3C[C@@H](O)CC(=O)O3)[C@H]21 [Simvastatin] (100 nM) — higher, 105%
- Cn1c(CCCC(=O)O)nc2cc(N(CCCl)CCCl)ccc21 [Bendamustine] (100 nM) — higher, 103%
- C#Cc1cccc(Nc2ncnc3cc(OCCOC)c(OCCOC)cc23)c1 [Erlotinib] (100 nM) — higher, 102%
- O=C(CCCCCCC(=O)Nc1ccc([C@H]2O[C@@H](CSc3nc(-c4ccccc4)c(-c4ccccc4)o3)C[C@@H](c3ccc(CO)cc3)O2)cc1)NO [Tubacin] (100 nM) — higher, 100%

System: MFM-223
Test: as above
Details: incubation time: 72 h
Outline: as §1

Point of comparison: CCC1(c2ccc(N)cc2)CCC(=O)NC1=O (stereo not drawn) [Aminoglutethimide] (100 nM), normalised response 92.2%. Against it:
- Cc1ccc(-n2nc(C(C)(C)C)cc2NC(=O)Nc2ccc(OCCN3CCOCC3)c3ccccc23)cc1 [Doramapimod] (100 nM) — higher, 99.4%
- N[C@@H](CSC(c1ccccc1)(c1ccccc1)c1ccccc1)C(=O)O [S-trityl-L-cysteine] (400 nM) — higher, 102%
- CCC(C)(C)C(=O)O[C@H]1C[C@@H](C)C=C2C=C[C@H](C)[C@H](CC[C@@H]3C[C@@H](O)CC(=O)O3)[C@H]21 [Simvastatin] (100 nM) — higher, 102%
- Cn1c(CCCC(=O)O)nc2cc(N(CCCl)CCCl)ccc21 [Bendamustine] (100 nM) — higher, 105%
- C#Cc1cccc(Nc2ncnc3cc(OCCOC)c(OCCOC)cc23)c1 [Erlotinib] (100 nM) — higher, 103%
- O=C(CCCCCCC(=O)Nc1ccc([C@H]2O[C@@H](CSc3nc(-c4ccccc4)c(-c4ccccc4)o3)C[C@@H](c3ccc(CO)cc3)O2)cc1)NO [Tubacin] (100 nM) — higher, 103%

System: HDQ-P1
Test: as above
Details: incubation time: 72 h
Outline: as §1

Point of comparison: N[C@@H](CSC(c1ccccc1)(c1ccccc1)c1ccccc1)C(=O)O [S-trityl-L-cysteine] (400 nM), normalised response 109%. Against it:
- Cc1ccc(-n2nc(C(C)(C)C)cc2NC(=O)Nc2ccc(OCCN3CCOCC3)c3ccccc23)cc1 [Doramapimod] (100 nM) — lower, 101%
- C[C@]12CC[C@@H]3c4ccc(O)cc4C[C@@H](CCCCCCCCC[S+]([O-])CCCC(F)(F)C(F)(F)F)[C@H]3[C@@H]1CC[C@@H]2O (stereo partly drawn) [Fulvestrant] (10 nM) — lower, 97.2%
- CCC(C)(C)C(=O)O[C@H]1C[C@@H](C)C=C2C=C[C@H](C)[C@H](CC[C@@H]3C[C@@H](O)CC(=O)O3)[C@H]21 [Simvastatin] (100 nM) — lower, 78.8%
- Cn1c(CCCC(=O)O)nc2cc(N(CCCl)CCCl)ccc21 [Bendamustine] (100 nM) — lower, 88.7%
- C#Cc1cccc(Nc2ncnc3cc(OCCOC)c(OCCOC)cc23)c1 [Erlotinib] (100 nM) — lower, 108%
- O=C(CCCCCCC(=O)Nc1ccc([C@H]2O[C@@H](CSc3nc(-c4ccccc4)c(-c4ccccc4)o3)C[C@@H](c3ccc(CO)cc3)O2)cc1)NO [Tubacin] (100 nM) — lower, 87.9%
- CCC1(c2ccc(N)cc2)CCC(=O)NC1=O (stereo not drawn) [Aminoglutethimide] (100 nM) — lower, 88.9%

System: BT-549
Test: as above
Details: incubation time: 72 h
Outline: as §1

Point of comparison: CCC(C)(C)C(=O)O[C@H]1C[C@@H](C)C=C2C=C[C@H](C)[C@H](CC[C@@H]3C[C@@H](O)CC(=O)O3)[C@H]21 [Simvastatin] (100 nM), normalised response 59.3%. Against it:
- Cc1ccc(-n2nc(C(C)(C)C)cc2NC(=O)Nc2ccc(OCCN3CCOCC3)c3ccccc23)cc1 [Doramapimod] (100 nM) — higher, 77.5%
- C[C@]12CC[C@@H]3c4ccc(O)cc4C[C@@H](CCCCCCCCC[S+]([O-])CCCC(F)(F)C(F)(F)F)[C@H]3[C@@H]1CC[C@@H]2O (stereo partly drawn) [Fulvestrant] (10 nM) — higher, 104%
- N[C@@H](CSC(c1ccccc1)(c1ccccc1)c1ccccc1)C(=O)O [S-trityl-L-cysteine] (400 nM) — higher, 71.8%
- Cn1c(CCCC(=O)O)nc2cc(N(CCCl)CCCl)ccc21 [Bendamustine] (100 nM) — higher, 101%
- C#Cc1cccc(Nc2ncnc3cc(OCCOC)c(OCCOC)cc23)c1 [Erlotinib] (100 nM) — higher, 93%
- O=C(CCCCCCC(=O)Nc1ccc([C@H]2O[C@@H](CSc3nc(-c4ccccc4)c(-c4ccccc4)o3)C[C@@H](c3ccc(CO)cc3)O2)cc1)NO [Tubacin] (100 nM) — higher, 102%
- CCC1(c2ccc(N)cc2)CCC(=O)NC1=O (stereo not drawn) [Aminoglutethimide] (100 nM) — higher, 98%

System: CAL-148
Test: as above
Details: incubation time: 72 h
Outline: as §1

Point of comparison: C#Cc1cccc(Nc2ncnc3cc(OCCOC)c(OCCOC)cc23)c1 [Erlotinib] (100 nM), normalised response 103%. Against it:
- Cc1ccc(-n2nc(C(C)(C)C)cc2NC(=O)Nc2ccc(OCCN3CCOCC3)c3ccccc23)cc1 [Doramapimod] (100 nM) — lower, 100%
- C[C@]12CC[C@@H]3c4ccc(O)cc4C[C@@H](CCCCCCCCC[S+]([O-])CCCC(F)(F)C(F)(F)F)[C@H]3[C@@H]1CC[C@@H]2O (stereo partly drawn) [Fulvestrant] (10 nM) — higher, 104%
- N[C@@H](CSC(c1ccccc1)(c1ccccc1)c1ccccc1)C(=O)O [S-trityl-L-cysteine] (400 nM) — lower, 80.7%
- CCC(C)(C)C(=O)O[C@H]1C[C@@H](C)C=C2C=C[C@H](C)[C@H](CC[C@@H]3C[C@@H](O)CC(=O)O3)[C@H]21 [Simvastatin] (100 nM) — lower, 99.7%
- Cn1c(CCCC(=O)O)nc2cc(N(CCCl)CCCl)ccc21 [Bendamustine] (100 nM) — higher, 107%
- O=C(CCCCCCC(=O)Nc1ccc([C@H]2O[C@@H](CSc3nc(-c4ccccc4)c(-c4ccccc4)o3)C[C@@H](c3ccc(CO)cc3)O2)cc1)NO [Tubacin] (100 nM) — lower, 98.1%

System: Hs578T
Test: as above
Details: incubation time: 72 h
Outline: as §1

Point of comparison: CCC1(c2ccc(N)cc2)CCC(=O)NC1=O (stereo not drawn) [Aminoglutethimide] (100 nM), normalised response 103%. Against it:
- Cc1ccc(-n2nc(C(C)(C)C)cc2NC(=O)Nc2ccc(OCCN3CCOCC3)c3ccccc23)cc1 [Doramapimod] (100 nM) — higher, 105%
- C[C@]12CC[C@@H]3c4ccc(O)cc4C[C@@H](CCCCCCCCC[S+]([O-])CCCC(F)(F)C(F)(F)F)[C@H]3[C@@H]1CC[C@@H]2O (stereo partly drawn) [Fulvestrant] (10 nM) — lower, 100%
- N[C@@H](CSC(c1ccccc1)(c1ccccc1)c1ccccc1)C(=O)O [S-trityl-L-cysteine] (400 nM) — lower, 79.2%
- CCC(C)(C)C(=O)O[C@H]1C[C@@H](C)C=C2C=C[C@H](C)[C@H](CC[C@@H]3C[C@@H](O)CC(=O)O3)[C@H]21 [Simvastatin] (100 nM) — lower, 75.5%
- Cn1c(CCCC(=O)O)nc2cc(N(CCCl)CCCl)ccc21 [Bendamustine] (100 nM) — higher, 105%
- C#Cc1cccc(Nc2ncnc3cc(OCCOC)c(OCCOC)cc23)c1 [Erlotinib] (100 nM) — lower, 75.5%
- O=C(CCCCCCC(=O)Nc1ccc([C@H]2O[C@@H](CSc3nc(-c4ccccc4)c(-c4ccccc4)o3)C[C@@H](c3ccc(CO)cc3)O2)cc1)NO [Tubacin] (100 nM) — lower, 98.1%

System: MDA-MB-231
Test: as above
Details: incubation time: 72 h
Outline: as §1

Point of comparison: Cc1ccc(-n2nc(C(C)(C)C)cc2NC(=O)Nc2ccc(OCCN3CCOCC3)c3ccccc23)cc1 [Doramapimod] (100 nM), normalised response 82.1%. Against it:
- C[C@]12CC[C@@H]3c4ccc(O)cc4C[C@@H](CCCCCCCCC[S+]([O-])CCCC(F)(F)C(F)(F)F)[C@H]3[C@@H]1CC[C@@H]2O (stereo partly drawn) [Fulvestrant] (10 nM) — higher, 115%
- N[C@@H](CSC(c1ccccc1)(c1ccccc1)c1ccccc1)C(=O)O [S-trityl-L-cysteine] (400 nM) — higher, 104%
- CCC(C)(C)C(=O)O[C@H]1C[C@@H](C)C=C2C=C[C@H](C)[C@H](CC[C@@H]3C[C@@H](O)CC(=O)O3)[C@H]21 [Simvastatin] (100 nM) — higher, 115%
- Cn1c(CCCC(=O)O)nc2cc(N(CCCl)CCCl)ccc21 [Bendamustine] (100 nM) — higher, 102%
- O=C(CCCCCCC(=O)Nc1ccc([C@H]2O[C@@H](CSc3nc(-c4ccccc4)c(-c4ccccc4)o3)C[C@@H](c3ccc(CO)cc3)O2)cc1)NO [Tubacin] (100 nM) — higher, 110%
- CCC1(c2ccc(N)cc2)CCC(=O)NC1=O (stereo not drawn) [Aminoglutethimide] (100 nM) — higher, 98%

System: CAL-51
Test: as above
Details: incubation time: 72 h
Outline: as §1

Point of comparison: O=C(CCCCCCC(=O)Nc1ccc([C@H]2O[C@@H](CSc3nc(-c4ccccc4)c(-c4ccccc4)o3)C[C@@H](c3ccc(CO)cc3)O2)cc1)NO [Tubacin] (100 nM), normalised response 101%. Against it:
- Cc1ccc(-n2nc(C(C)(C)C)cc2NC(=O)Nc2ccc(OCCN3CCOCC3)c3ccccc23)cc1 [Doramapimod] (100 nM) — the same, 101%
- C[C@]12CC[C@@H]3c4ccc(O)cc4C[C@@H](CCCCCCCCC[S+]([O-])CCCC(F)(F)C(F)(F)F)[C@H]3[C@@H]1CC[C@@H]2O (stereo partly drawn) [Fulvestrant] (10 nM) — higher, 109%
- N[C@@H](CSC(c1ccccc1)(c1ccccc1)c1ccccc1)C(=O)O [S-trityl-L-cysteine] (400 nM) — higher, 110%
- CCC(C)(C)C(=O)O[C@H]1C[C@@H](C)C=C2C=C[C@H](C)[C@H](CC[C@@H]3C[C@@H](O)CC(=O)O3)[C@H]21 [Simvastatin] (100 nM) — higher, 113%
- Cn1c(CCCC(=O)O)nc2cc(N(CCCl)CCCl)ccc21 [Bendamustine] (100 nM) — higher, 111%
- C#Cc1cccc(Nc2ncnc3cc(OCCOC)c(OCCOC)cc23)c1 [Erlotinib] (100 nM) — higher, 111%
- CCC1(c2ccc(N)cc2)CCC(=O)NC1=O (stereo not drawn) [Aminoglutethimide] (100 nM) — higher, 113%

System: CAL-85-1
Test: as above
Details: incubation time: 72 h
Outline: as §1

Point of comparison: N[C@@H](CSC(c1ccccc1)(c1ccccc1)c1ccccc1)C(=O)O [S-trityl-L-cysteine] (400 nM), normalised response 99.5%. Against it:
- Cc1ccc(-n2nc(C(C)(C)C)cc2NC(=O)Nc2ccc(OCCN3CCOCC3)c3ccccc23)cc1 [Doramapimod] (100 nM) — lower, 85.4%
- C[C@]12CC[C@@H]3c4ccc(O)cc4C[C@@H](CCCCCCCCC[S+]([O-])CCCC(F)(F)C(F)(F)F)[C@H]3[C@@H]1CC[C@@H]2O (stereo partly drawn) [Fulvestrant] (10 nM) — higher, 102%
- Cn1c(CCCC(=O)O)nc2cc(N(CCCl)CCCl)ccc21 [Bendamustine] (100 nM) — lower, 89.6%
- C#Cc1cccc(Nc2ncnc3cc(OCCOC)c(OCCOC)cc23)c1 [Erlotinib] (100 nM) — lower, 86.2%
- O=C(CCCCCCC(=O)Nc1ccc([C@H]2O[C@@H](CSc3nc(-c4ccccc4)c(-c4ccccc4)o3)C[C@@H](c3ccc(CO)cc3)O2)cc1)NO [Tubacin] (100 nM) — higher, 99.6%
- CCC1(c2ccc(N)cc2)CCC(=O)NC1=O (stereo not drawn) [Aminoglutethimide] (100 nM) — higher, 106%

Reference: the supplement of paper PMC4862054
